Results on one molecule are retold here after article PMC5371667, “Targeting Bile Acid Receptors: Discovery of a Potent and Selective Farnesoid X Receptor Agonist as a New Lead in the Pharmacological Approach to Liver Diseases” (Frontiers in Pharmacology, 2017).

Test [1] addresses T1, hFXR (Homo sapiens, UniProt Q96RI1).
T1 construct: expressed in transfected cells; host or cells: HepG2
T1 sequence (Q96RI1 1-486): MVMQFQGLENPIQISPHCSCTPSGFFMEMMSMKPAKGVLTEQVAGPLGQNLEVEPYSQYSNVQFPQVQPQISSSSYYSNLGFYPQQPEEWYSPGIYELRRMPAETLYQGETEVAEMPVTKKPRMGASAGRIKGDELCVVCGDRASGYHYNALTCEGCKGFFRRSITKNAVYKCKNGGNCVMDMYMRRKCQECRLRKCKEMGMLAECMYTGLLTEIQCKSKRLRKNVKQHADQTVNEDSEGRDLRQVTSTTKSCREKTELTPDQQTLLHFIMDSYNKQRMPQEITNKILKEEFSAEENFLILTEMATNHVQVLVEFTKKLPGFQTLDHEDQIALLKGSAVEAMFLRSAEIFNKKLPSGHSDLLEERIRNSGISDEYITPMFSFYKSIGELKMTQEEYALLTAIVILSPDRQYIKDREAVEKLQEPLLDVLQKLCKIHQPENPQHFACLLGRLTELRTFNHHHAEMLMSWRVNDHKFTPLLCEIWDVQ
T1 sequence (P19793 1-462 partner): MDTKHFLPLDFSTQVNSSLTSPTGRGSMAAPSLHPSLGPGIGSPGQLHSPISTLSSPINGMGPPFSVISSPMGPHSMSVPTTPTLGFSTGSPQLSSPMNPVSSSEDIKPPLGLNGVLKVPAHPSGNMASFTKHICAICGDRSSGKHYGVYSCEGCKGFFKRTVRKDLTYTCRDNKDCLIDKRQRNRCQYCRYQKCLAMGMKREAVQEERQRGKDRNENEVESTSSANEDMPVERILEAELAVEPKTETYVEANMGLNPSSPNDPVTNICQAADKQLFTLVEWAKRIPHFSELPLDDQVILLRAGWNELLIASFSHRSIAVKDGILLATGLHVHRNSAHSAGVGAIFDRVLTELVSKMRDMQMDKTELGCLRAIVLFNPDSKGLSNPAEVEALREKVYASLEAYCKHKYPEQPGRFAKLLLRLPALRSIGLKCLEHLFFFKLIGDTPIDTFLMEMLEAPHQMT
The test is described as follows: FXR transactivation on HepG2 cells (luciferase reporter). The class given is cell-based. As to the method:
HepG2 (HB, 8065 from ATCC), an immortalized human epatocarcinoma cell line, was cultured and maintained at 37°C and 5% CO2 in E-MEM additioned with 10% FBS, 1% glutamine, and 1% penicillin/streptomycin. For FXR mediated transactivation, HepG2 cells were plated at 5 × 10^4 cells/well in a 24 well plate. Cells were transfected with 200 ng of the reporter vector p(hsp27)-TK-LUC containing a FXR response element (IR1) cloned from the promoter of heat shock protein 27 (hsp27), 100 ng of pSG5-FXR, 100 ng of pSG5-RXR, and 100 ng of pGL4.70 (Promega), a vector encoding the human Renilla gene. For GPBAR1 mediated transactivation, HepG2 cells were plated at 5 × 10^4 cells/well in a 24 well-plate and transfected with 200 ng of pGL4.29 (Promega), a reporter vector containing a cAMP response element (CRE) that drives the transcription of the luciferase reporter gene luc2P, with 100 ng of pCMVSPORT6-human GPBAR1, and with 100 ng of pGL4.70 Renilla. […]. TLCA (10 μM) was used as a positive control for GPBAR1 activity.
HepG2 cells were transfected as described above and then treated with increasing concentrations of compounds. At 18 h post stimulations, cellular lysates were assayed for luciferase and Renilla activities using the Dual-Luciferase Reporter assay system (E1980, Promega). Luminescence was measured using Glomax 20/20 luminometer (Promega). Luciferase activities were normalized with Renilla activities.

Test [2] has as its target T2, LXRα (Homo sapiens, UniProt Q13133).
T2 construct: expressed in transfected cells; host or cells: HepG2
T2 sequence (Q13133 209-447 limits assumed): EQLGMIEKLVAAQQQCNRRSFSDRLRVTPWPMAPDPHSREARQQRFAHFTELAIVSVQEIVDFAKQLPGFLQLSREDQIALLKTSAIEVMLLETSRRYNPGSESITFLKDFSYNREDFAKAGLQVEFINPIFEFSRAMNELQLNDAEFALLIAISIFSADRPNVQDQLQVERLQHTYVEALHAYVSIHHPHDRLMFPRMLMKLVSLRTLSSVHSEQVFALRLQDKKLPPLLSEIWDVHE
The test is described as follows: LXRα transactivation on HepG2 cells (GAL4 LBD reporter). The class given is cell-based. As to conditions: 10 μM. The protocol:
To evaluate LXRα and LXRβ mediated transactivation, HepG2 cells were transfected with 200 ng of the reporter vector p(UAS)5XTKLuc, 100 ng of a vector containing the ligand binding domain of LXRα or LXRβ cloned upstream of the GAL4-DNA binding domain (i.e., pSG5-LXRαLBD-GAL4DBD or pSG5-LXRβLBD-GAL4DBD) and 100 of pGL4.70 Renilla. At 24 h post-transfection, cells were stimulated 18 h with 10 μM compound 2 and GW3965 (GW, 10 μM) was used as positive control. To investigate the PPARα and PPARγ mediated transactivation, HepG2 cells were transiently transfected with 200 ng reporter vector p(UAS)9XTKLuc, 100 ng of a vector containing the ligand binding domain of PPARα or PPARγ cloned upstream of the GAL4-DNA binding domain (i.e., pSG5- PPARαLBD-GAL4DBD or pSG5- PPARγLBD-GAL4DBD) and 100 of pGL4.70 Renilla. For PPARα transactivation, cells were stimulated with 10 μM compound 2 and gemfibrozil (GEM, 10 μM) was used as positive control. For PPARγ transactivation, cells were stimulated with 10 μM compound 2 and rosiglitazone (ROSI, 100 nM) was used as a positive control. Luciferase activities were assayed and normalized with Renilla activities.

In test [1] (10 nM to 25 μM, 18 h), `CC[C@H]1[C@@H](O)[C@@H]2[C@H](CC[C@]3(C)[C@@H]([C@H](C)CCC(=O)O)CC[C@@H]23)[C@@]2(C)CC[C@H](N=[N+]=[N-])C[C@@H]12` [compound 2, 3β-azido-6α-ethyl-7α-hydroxy-5β-cholan-24-oic acid] gave an EC50 of 846 nM. For the same molecule, the “FXR transactivation compared with 6-ECDCA” value in test [1] (10 μM) is “equipotent with 6-ECDCA”. For the same molecule, in test [2], the LXRα transactivation result is “unable in inducing”.
